Results taken from PMC7723321 (Nature chemical biology, 2020).

Experiments:
HIV-1 92UG037.8 Env = HIV-1 92UG037.8 Env (Human immunodeficiency virus type 1, UniProt Q70200); format: cell-based
2F5 Fab = format: binding
SIVmac251.30 Env = format: cell-based, SIV
HIV-1 Env pseudoviruses = format: cell-based
[1] = test system: Envs from HIV-1 primary isolates of clade A, B, C and AG; format: cell-based

| SMILES | inhibition activity/potency in the HIV-1 Env cell-cell fusion assay (in words) (HIV-1 92UG037.8 Env) | binding to 2F5 Fab by SPR (in words) (2F5 Fab) | inhibition of cell-cell fusion mediated by SIV Env, high expression level (SIVmac251.30 Env) | inhibition of cell-cell fusion mediated by SIV Env, low expression level (SIVmac251.30 Env) | cytotoxicity in TZM.bl cells (TZM.bl cells) | inhibition of HIV-1 infectivity versus MuLV negative control (HIV-1 Env pseudoviruses) | cytotoxicity by an assay measuring ATP concentration (293T cells) | inhibition of cell-cell fusion mediated by Envs of multiple primary HIV-1 isolates [1] |
| --- | --- | --- | --- | --- | --- | --- | --- | --- |
| Cc1cc(N)c2ccccc2n1 [4-aminoquinaldine] | no activity |  |  |  |  |  |  |  |
| Cc1cc(N)c2ccccc2[n+]1CCCCCCCCCC[n+]1c(C)cc(N)c2ccccc21 [dequalinium, quinolinium,1,1’-(1,10-decanediyl)-bis(4-amino-2-methyldiiodide)] |  | no binding | resistant | inhibited | more cytotoxicity than in the cell-cell fusion assay | much greater inhibition | minimal level of cytotoxicity | specifically inhibited |
